# “Also recorded” adds a separate entry of the source. Like-named read-outs stand apart in the source and are kept apart here.
# Tests used:
# MCF‐7 [1] = details: cited from earlier work
# MDA‐MB‐231 [2] = details: MDA‐MB‐231, 24 h, cited from earlier work
# [3] = tested on: multiple myeloma cell lines; design: method as in Yasui et al. (2007) [63]; details: 48 h, ref Yasui et al. (2007) [63]; cited from earlier work
# COX‐2 [4] = experiment: Western blot COX‐2 protein expression, MCF‐7; format: cell-based, human; details: 24 h
# Description: (§1) Total protein levels were measured using the Take3 Multi‐Volume Plate (Synergy H1, BioTek Instruments Inc., Vermont, USA). In accordance with the classical protocol, transferred proteins were exposed to the following primary antibodies: Beta‐actin (NB600‐501, Novus Biologicals), Bax (SPM336, NBP2‐32809), Bcl‐2 (100/D5, NBP2‐15200), cleaved PARP (194C1439, NBP2‐27335), and COX‐2 (D‐12:sc‐166475, Santa Cruz). The bands were visualized with chemiluminescent HRP substrates (Western Bright ECL‐Advansta, K‐12045‐050). Using a chemiluminescence imaging system (Celvin S, BioStep), the relative quantification was done based on the level of β‐actin proteins.
# MDA‐MB‐231 [5] = experiment: MTT cell viability assay, MDA‐MB‐231; format: cell-based, human; details: for IC50: Homo sapiens, MTT
# Text: (§2) MCF‐7, MDA‐MB‐231, and L‐929 mouse fibroblast cell lines were obtained from the American Type Culture Collection (ATCC, Manassas, Virginia, USA). MCF‐7 is a hormone‐responsive, differentiated mammary epithelium cell line with an ER+, PR+, and HER2‐ pattern (ATCC, HTB‐22). MDA‐MB‐231 is a triple‐negative differentiated mammary epithelium cell line (ATCC, HTB‐26). The L‐929 mouse fibroblast cell line is derived from the normal subcutaneous connective tissue of a mouse and is commonly used in cytotoxicity assays (ATCC, CCL‐1). All cell lines were cultured in DMEM medium (Dulbecco's Modified Eagle Medium, Gibco), supplemented with 10% fetal bovine serum (Gibco), 1% glutamine, and penicillin/streptomycin (Gibco) in a humidified atmosphere containing 5% CO2 at 37°C. Cell viability was tested using Trypan blue staining.
# (§3) The MTT [3‐(4,5‐dimethylthiazol‐2‐yl)−2,5‐diphenyltetrazolium bromide] assay is a colorimetric assay for determining cell metabolic activity. In the MTT assay, the yellow dye MTT that dissolves in water is changed by mitochondrial reductase into a purple formazan that is non‐soluble. The water‐insoluble formazan produced is solubilized in a solubilization buffer, and absorbances are detected.
# (§4) In 96‐well plates, the cells were cultivated at a density of 5 × 10^3 cells/well using 100 µL medium. […] 10 μL of the MTT labeling reagent (final concentration 0.5 mg/mL) were added to each well at the end of the incubation periods, and the wells were incubated for an additional 4 h. Next, each well received 100 μL of solubilization buffer (10% SDS in 0.01 M HCl) and was overnight incubated, and the absorbance of formazan products was evaluated at 550 nm using a multi‐mode microplate reader (Synergy H1, Biotech Instruments Inc., Vermont, USA). The results were normalized relative to the absorbances of calculated percent concentrations of DMSO. All tests involved three replicates with three independent experiments.
# (§5) All statistical evaluations, including t‐tests and IC50 values, were calculated using the GraphPad Prism software tool (v6.0, GraphPad Software Inc., San Diego, USA). Statistical significance was defined as p ˂ 0.05 (*p < 0.05, **p < 0.01, ***p < 0.001, ****p < 0.0001).
# MDA‐MB‐231 [6] = experiment: Mitochondrial membrane potential (JC‐1) apoptosis assay, MDA‐MB‐231; format: cell-based, human; details: MDA‐MB‐231, 50 μM, 24 h, MMP assay
# Description: (§6) Apoptosis was also investigated by evaluating mitochondrial membrane potential changes (MMP assay). MCF‐7, MDA‐MB‐231, and L‐929 cells were stained with JC‐1 dye according to the manufacturer's protocols (JC‐1 MMP Assay Kit, KA1324, Abnova). The apoptotic to healthy cell ratio was calculated using absorbances collected from two different fluorescence channels (535/595 for healthy cells, 485/535 for apoptotic cells) (Synergy H1, Biotech Instruments Inc., Vermont, USA).
# MCF‐7 [7] = experiment: Annexin V/PI staining, Tali image‐based cytometry, MCF‐7; format: cell-based, human; details: MCF‐7, 24 h
# Text: (§7) To assess apoptosis and cell death, cells were stained with Annexin V‐PI dyes (Tali Apoptosis Kit‐Annexin V Alexa Fluor 488 and PI‐, Molecular Probes A10788, Invitrogen) and quantified using Tali Image‐Based Cytometer (Invitrogen) and fluorescence microscopy (Olympus CKX41 Inverted Phase Contrast Fluorescence Microscope furbished with reflected fluorescence illuminator CKX‐RFA).
# (§8) To assess whether our compounds produce their cytotoxic effects through induction of apoptosis, apoptosis was investigated using Annexin V/PI labeling and MMP methods (Figures 4A−C). In addition, by utilizing TALI image‐based cytometry and fluorescent microscopy, the number of cells was analyzed for different concentrations of agents (Table 4).
# MCF‐7 [8] = experiment: MTT cell viability assay, MCF‐7; format: cell-based, human; details: for IC50: Homo sapiens, MCF7, MTT
# Text: as §2, §3, §4, §5
# [9] = tested on: L‐929 mouse fibroblast cell line; experiment: MTT cell viability assay, L‐929 control fibroblasts; format: cell-based; details: Mus musculus
# Text: as §2, §3, §4, §5
# COX‐2 [10] = experiment: Western blot COX‐2 protein expression, MDA‐MB‐231; format: cell-based, human; details: 24 h
# Description: as §1
# MDA‐MB‐231 [11] = experiment: Annexin V/PI staining, Tali image‐based cytometry, MDA‐MB‐231; format: cell-based, human; details: MDA‐MB‐231, 24 h
# Text: as §7, §8
# Bax/Bcl‐2 ratio = experiment: Western blot Bax/Bcl‐2 ratio in breast cancer cell lines; format: cell-based, human; details: 50 and 75 µM, 24 h
# Description: as §1
# L‐929 = experiment: Mitochondrial membrane potential (JC‐1) apoptosis assay, L‐929; format: cell-based, mouse; details: L‐929, 50 μM, 24 h, MMP assay
# Description: as §6
# MCF‐7 [12] = experiment: Mitochondrial membrane potential (JC‐1) apoptosis assay, MCF‐7; format: cell-based, human; details: MCF‐7, 50 μM, 24 h, MMP assay
# Description: as §6
# c‐PARP = experiment: Western blot cleaved PARP, MDA‐MB‐231; format: cell-based, human; details: MDA‐MB‐231, 24 h, all concentrations (50 and 75 µM); not measurable in MCF‐7
# Description: as §1
# [13] = tested on: MCF‐7, MDA‐MB‐231, and L‐929; experiment: MTT cell viability assay, statements over all cell lines; format: cell-based; details: 25 µM; MCF‐7, MDA‐MB‐231 and L‐929; not dose‐dependent
# Text: as §2, §3, §4
# All statistical evaluations, including t‐tests and IC50 values, were calculated using the GraphPad Prism software tool (v6.0, GraphPad Software Inc., San Diego, USA). […]
# [14] = tested on: cancer cell proliferation; design: method as in PMID 27074576; details: read-out: Effective range of cytotoxicity IC50 values in inhibiting cancer cell proliferation; cited from earlier work
# PGE2 release [15] = experiment: PGE2 ELISA, MCF‐7; format: cell-based, human; details: MCF‐7, 3 µM
# Description: (§9) PGE2 ELISA kit (ENZO, ADI‐900‐001) was used to determine prostaglandin synthesis levels. MCF‐7 and MDA‐MB‐231 breast cancer cells were cultured at a density of 1 × 10^6 cells/well in a 6‐well culture dish. […] Following 24 h of incubation, the medium was replaced with a fresh one, 10 µM arachidonic acid was added, and it was further incubated for 1 h. The PGE2 levels were determined according to the kit protocol.
# PGE2 release [16] = experiment: PGE2 ELISA, MDA‐MB‐231; format: cell-based, human; details: MDA‐MB‐231, 3 µM
# Description: as §9
# [17] = MDA-MB-231, 24 h, MDA‐MB‐231, 24 h
# [18] = MDA-MB-231, 48 h, MDA‐MB‐231, 48 h
# [19] = MDA‐MB‐231 in comparison to L‐929, 24 h
# [20] = MDA‐MB‐231 in comparison to L‐929, 48 h
# [21] = MCF‐7 in comparison to L‐929, 24 h
# [22] = MCF‐7 in comparison to L‐929, 48 h
compound,measurement,setting,value
O=C(O)C(=O)O.[NH-][C@@H]1CCCC[C@H]1[NH-].[Pt+2] [Oxaliplatin],IC50,"MCF‐7 [1]; MCF‐7, 24 h, ref Raymond et al. (1997) [66]",7.4 µM
same,IC50,MDA‐MB‐231 [2]; ref Raymond et al. (1997) [66],17.9 µM
CCc1cc(Br)cc2c3c([nH]c12)C(CC)(CCO)OCC3 (stereo not shown) [Etodolac analog SDX‐308],IC50,[3],23.8 µM
"CCc1cccc2c3c([nH]c12)C(CC)(CC(=O)NN1C(=O)CSC1c1c(F)cccc1F)OCC3 (stereo not shown) [SGK 217, 3‐(2‐(1,8‐Diethyl‐1,3,4,9‐tetrahydropyrano[3,4‐b]indole‐1‐yl)acetylhydrazono)‐2‐(2,6‐difluorophenyl)‐4‐thiazolidinone]",Decrease in COX‐2 protein expression compared to the control group,"COX‐2 [4]; MCF‐7, 50 µM",56%
same,Decrease in COX‐2 protein expression compared to the control group,"COX‐2 [4]; MCF‐7, 75 µM",85%
same,IC50,MDA‐MB‐231 [5]; [17],36 ± 1.6 µM
same,IC50,MDA‐MB‐231 [5]; [18],13.8 ± 1.6 µM
same,IC50,"MDA‐MB‐231 [5]; MDA-MB-231, 72 h, MDA‐MB‐231, 72 h",14.6 ± 1.4 µM
same,Selectivity index (SI),MDA‐MB‐231 [5]; [19],2.0
same,Selectivity index (SI),MDA‐MB‐231 [5]; [20],2.1
same,Selectivity index (SI),"MDA‐MB‐231 [5]; MDA‐MB‐231 in comparison to L‐929, 72 h",1.8
same,Increase in apoptosis compared to the control group,MDA‐MB‐231 [6],85%
same,Apoptotic cells,MCF‐7 [7]; 25 µM,6%
same,Dead cells,MCF‐7 [7]; 25 µM,7%
same,Live cells,MCF‐7 [7]; 25 µM,87%
same,Apoptotic cells,MCF‐7 [7]; 50 µM,16%
same,Dead cells,MCF‐7 [7]; 50 µM,10%
same,Live cells,MCF‐7 [7]; 50 µM,74%
same,Apoptotic cells,MCF‐7 [7]; 75 µM,18%
same,Dead cells,MCF‐7 [7]; 75 µM,27%
same,Live cells,MCF‐7 [7]; 75 µM,55%
same,IC50,"MCF‐7 [8]; MCF‐7, 24 h",18 ± 3.4 µM
same,IC50,"MCF‐7 [8]; MCF‐7, 48 h",12.2 ± 2 µM
same,IC50,"MCF‐7 [8]; MCF‐7, 72 h",26.7 ± 4.8 µM
same,Selectivity index (SI),MCF‐7 [8]; [21],4.0
same,Selectivity index (SI),MCF‐7 [8]; [22],2.4
same,Selectivity index (SI),"MCF‐7 [8]; MCF‐7 in comparison to L‐929, 72 h",1
same,IC50,"[9]; L929, 24 h, L‐929, 24 h",72 ± 3.2 µM
same,IC50,"[9]; L929, 48 h, L‐929, 48 h",29.6 ± 0.94 µM
same,IC50,"[9]; L929, 72 h, L‐929, 72 h",26.3 ± 0.112 µM
same,Decrease in COX‐2 protein expression compared to the control group,"COX‐2 [10]; MDA‐MB‐231, 50 µM",61%
same,Decrease in COX‐2 protein expression compared to the control group,"COX‐2 [10]; MDA‐MB‐231, 75 µM",84%
same,Apoptotic cells,MDA‐MB‐231 [11]; 25 µM,0%
same,Dead cells,MDA‐MB‐231 [11]; 25 µM,7%
same,Live cells,MDA‐MB‐231 [11]; 25 µM,93%
same,Apoptotic cells,MDA‐MB‐231 [11]; 50 µM,23%
same,Dead cells,MDA‐MB‐231 [11]; 50 µM,11%
same,Live cells,MDA‐MB‐231 [11]; 50 µM,66%
same,Bax/Bcl‐2 ratio change,Bax/Bcl‐2 ratio,significantly rise
same,Increase in apoptosis compared to the control group,L‐929,3%
same,Increase in apoptosis compared to the control group,MCF‐7 [12],51%
same,c‐PARP (89‐kD fragment) protein change,c‐PARP,consistent activation; also recorded: significant increase
"CCc1cccc2c3c([nH]c12)C(CC)(Cc1n[nH]c(=S)n1Cc1ccccc1)OCC3 (stereo not shown) [SGK 242, 5‐[(1,8‐Diethyl‐1,3,4,9‐tetrahydropyrano[3,4‐b]indole‐1‐yl)methyl]‐4‐benzyl‐2,4‐dihydro‐3H‐1,2,4‐triazole‐3‐thione]",IC50,MDA‐MB‐231 [5]; [17],31 ± 2.5 µM
same,IC50,MDA‐MB‐231 [5]; [18],24 ± 1.2 µM
same,Selectivity index (SI),MDA‐MB‐231 [5]; [19],1.2
same,Selectivity index (SI),MDA‐MB‐231 [5]; [20],1.8
same,IC50,"MCF‐7 [8]; MCF‐7, 24 h",22 ± 0.1 µM
same,IC50,"MCF‐7 [8]; MCF‐7, 48 h",12 ± 3.3 µM
same,Selectivity index (SI),MCF‐7 [8]; [21],1.7
same,Selectivity index (SI),MCF‐7 [8]; [22],3.6
same,IC50,"[9]; L929, 24 h, L‐929, 24 h",38 ± 8.05 µM
same,IC50,"[9]; L929, 48 h, L‐929, 48 h",44.2 ± 2.45 µM
same,Toxicity on all cell lines,[13],severe toxicity
Cc1ccc(-c2cc(C(F)(F)F)nn2-c2ccc(S(N)(=O)=O)cc2)cc1 [Celecoxib],IC50,[14],25 to 100 µM
same,IC50,"MCF‐7 [1]; MCF‐7, 24 h, monolayer cultures, ref Huang et al. (2017) [64]",89 µM
same,IC50,"MCF‐7 [1]; MCF‐7, 24 h, monolayer cultures, ref Huang et al. (2017) [64], listed as celecoxib",40.1 µM
same,IC50,"MDA‐MB‐231 [2]; monolayer cultures, ref Huang et al. (2017) [64]",40.1 µM
same,IC50,"MDA‐MB‐231 [2]; monolayer cultures, ref Huang et al. (2017) [64], listed as celecoxib",89 µM
CS(=O)(=O)c1ccc(-c2cc(Br)sc2-c2ccc(F)cc2)cc1 [DUP‐697],Reduction of PGE2 release,PGE2 release [15],46%
same,Reduction of PGE2 release,PGE2 release [16],88%
CCc1cccc2c3c([nH]c12)[C@@](CC)(CC(=O)O)OCC3 [Etodolac R‐enantiomer SDX‐101],IC50,[3],490 µM
O=c1[nH]cc(F)c(=O)[nH]1 [5‐FU],IC50,"MCF‐7 [1]; MCF‐7, 24 h, ref Badawi et al. (2023) [68]",17 µM
same,IC50,MDA‐MB‐231 [2]; ref Badawi et al. (2023) [68],11.7 µM
CC(C)Cc1ccc(C(C)C(=O)O)cc1 (stereo not shown) [Ibuprofen],IC50,"MCF‐7 [1]; MCF‐7, 48 h, ref Daniel Pedro‐Hernández et al. (2020) [67]",92.1 µM

# Reference: PMC12337082 (Journal of Biochemical and Molecular Toxicology, 2025)
